Key:
[1] = system: TMD8 human DLBCL cells; test: TMD8 DLBCL xenograft in immunodeficient mice, tumor growth; type: in vivo; conditions: 10 or 20 mg/kg intraperitoneally
Procedure: FIG. 11A: Tumor volume monitoring of TMD8 human DLBCL cells grown in Immunodeficient mice treated intraperitoneally with the compound 52 (=inhibitor 52) at 10 or 20 mg/kg or with vehicle at the same frequency. (Abscissa: Days from 0 to 25 in day; Ordinate: Tumor volume in mm^3 from 0 to 4000 (scale 1000)).
FIG. 11B: Tumor weight monitoring of TMD8 human DLBCL cells grown in Immunodeficient mice treated intraperitoneally with the compound 52 (=inhibitor 52) at 10 or 20 mg/kg or with vehicle at the same frequency. (Abscissa: Treatments vehicle, 10 mg/kg or 20 mg/kg of compound 52; Ordinate: Tumor weight in g from 0 to 4 g (scale 1)).

[2] = Body and spleen weights of mice during treatment; type: in vivo; conditions: immunodeficient mice, 10 or 20 mg/kg intraperitoneally
Procedure: FIG. 11C: Body weight monitoring of Immunodeficient mice treated intraperitoneally with the compound 52 (=inhibitor 52) at 10 or 20 mg/kg or with vehicle at the same frequency. (Abscissa: Days from 0 to 20 in day; Ordinate: Body weight in g from 24 to 34 g (scale 2)).
FIG. 11D: Spleen weights monitoring of Immunodeficient mice treated intraperitoneally with the compound 52 (=inhibitor 52) at 10 or 20 mg/kg or with vehicle at the same frequency. (Abscissa: Treatments vehicle, 10 mg/kg or 20 mg/kg of compound 52; Ordinate: Spleen weight in mg from 20 to 100 mg (scale 20)).

[3] = system: DLBCL cell lines (HBL1, TMD8, U2932); test: Viability of B-cell lymphoma cell lines, combination with Ibrutinib; type: cell-based, human; conditions: compound 33 at suboptimal 10 μM, Ibrutinib 0.01-100 nM
Procedure: FIG. 12: Viability of various B-cell lymphoma cell lines treated with a suboptimal concentration of compound 33 (i) alone or (ii) in combination with increasing concentrations of Ibrutinib.
Groups of bars, from the left to the right of FIG. 12: (i) HBL1 human diffuse large B-cell lymphoma cell line not treated with compound 33 and treated with and increasing concentrations of Ibrutinib, (ii) HBL1 human diffuse large B-cell lymphoma cell line treated with 10 μM of compound 33 and increasing concentrations of Ibrutinib, (iii) TMD8 human B cell lymphoma cell line not treated with compound 33 and treated with and increasing concentrations of Ibrutinib, (iv) TMD8 human B cell lymphoma cell line treated with 10 μM of compound 33 and increasing concentrations of Ibrutinib, (v) U2932 human diffuse large B-cell lymphoma cell line not treated with compound 33 and treated with and increasing concentrations of Ibrutinib, and (vi). U2932 human diffuse large B-cell lymphoma cell line treated with 10 μM of compound 33 and increasing concentrations of Ibrutinib.
In each group of bars, form the left to the right: (i) Control (0 nM), without treatment with Ibrutinib, (ii) Ibrutinib at 0.01 nM, (iii) Ibrutinib at 0.1 nM, (iv) Ibrutinib at 1 nM, (v) Ibrutinib at 10 nM, (vi) Ibrutinib at 100 nM.

[4] = system: mouse colon cancer CT-26 cells; test: Tumor growth, syngeneic CT-26 model in Balb/c mice; type: in vivo; conditions: CT-26, 5 mg/Kg intraperitoneally every three days
Procedure: FIG. 6A: Tumor volume monitoring of CT26 cells in Balb/c mice control-treated (Ctrl—line with circle) and treated with the compound 33 (5 mg/kg—line with square). Animals were treated by intraperitoneally injection every three days. (Abscissa: Days from 0 to 16 in day; Ordinate: Tumor volume in mm^3 from 0 to 200 (scale 500))
Two different colorectal mouse models were used: a syngeneic model for which mouse colon cancer CT-26 cells were injected into Balb/c mice and a NOD/SCID model in which mice were implanted with human colorectal cancer HCT116 cells (FIG. 4 A-B). When the tumor reached a size of −2 mm, mice were treated intraperitoneally with the compound 33 at 5 mg/Kg (BALB/c n=11, NOD SCID n=6) or corn oil 5% DMSO (BALB/c n=10, NOD SCID n=6), every three days until the end of the experiment. The compound 33 was dissolved in DMSO, then diluted 20 times in corn oil (Sigma Aldrich-C8267) and sterilized by filtration with PTFE membrane Millex 0.2 μm (Millipore-SLFG025LS). Tumors were analyzed before reaching 2000 mm3. Treatment by compound 33 induces a decrease in tumor growth of 40% and 60% in the Balb/c and NOD mice, respectively (FIGS. 6A and 6B).

[5] = system: tumor-infiltrating macrophages; test: Macrophage M1/M2-like markers in tumor slides, CT-26-Balb/c model; type: in vivo, mouse
Procedure: FIG. 8A: Pro-inflammatory M1-like macrophage markers pSTAT1 and NOS2 determined in tumor slides from CT-26-Balb/c mice model. Animals were treated or not every 3 days with the compound 33 (5 mg/Kg) Statistical analysis has been performed by ANOVA (***=p=0.0051). […] FIG. 9A: Anti-inflammatory macrophage M2-like markers Arg1 and pSTAT6 determined in tumor slides from CT-26-Ballb/c mice model. Animals were treated or not every 3 days with the compound 33 (5 mg/Kg). Statistical analysis has been performed by ANOVA (***=p=0.0031). […] Anti-p-STAT1 (1/200; polyclonal, Cell Signaling), anti-SOCS1 (Suppressor of Cytokine Signaling protein 1, 1/200; polyclonal, Santa Cruz), and anti-NOS2 (Nitric Oxide Synthase 2, 1/200; polyclonal Santa Cruz) antibodies were used for M1-like macrophage markers. Anti-pSTAT6 (1/200; polyclonal Santa Cruz), anti-arginase-1 (1/200; polyclonal Santa Cruz) and anti-ALOX15 (Arachidonate 15-LipOXygenase, 1/200; monoclonal Santa Cruz) antibodies were used for M2-like macrophage markers. Primary antibodies were detected using Alexa fluor 488 or Alexa fluor 568-coupled secondary antibodies (1/500, Invitrogen). Nuclei were stained with 10 μl of ProLong Gold Antifade Mountant with DAPI (Molecular Probes). The same protocol was used for NOD/SCID mice except that mice were killed after 16 days after HCT116 cells injection. For the Balb/c model, mice were sacrificed at day […] (day 1 being the first day of treatment). […] Especially the pSTAT1 relative expression measured is about 1.5 for compound 33 compared to 1.0 for the control, the NOS2 relative expression measured is about 1 for compound 33 compared to 2.5 for the control (FIG. 8A) in CT-26-Balb/c mice model. The pSTAT1 relative expression measured is about 1.5 for compound 33 compared to 0 for the control and the NOS2 relative expression measured is about 20 for compound 33 compared to 2 for the control (FIG. 8B) in NOD/SCID mice model.

[6] = CT-26-Balb/c model, control 1.0

SMILES | tumor growth of xenografted DLBCL cell line [1] | toxicity (body and spleen weights) [2] | effect in combination with Ibrutinib on viability [3] | decrease in tumor growth [4] [%] | SOCS1 expression (M1 marker) ([5]; Balb/c (syngeneic) model) | pSTAT1 relative expression (M1 marker) ([5]; CT-26-Balb/c model, 5 mg/Kg, control 1.0) | NOS2 relative expression (M1 marker) ([5]; CT-26-Balb/c model, 5 mg/Kg, control 2.5 as printed) | Arg1 relative expression (M2 marker) [5, 6] | pSTAT6 relative expression (M2 marker) [5, 6]
COc1cc(-c2cnc(-c3cnc(-c4cc(OC)c(OC)c(OC)c4)c(C)c3)c(/C=C/c3ccccc3)c2)cc(OC)c1OC [compound 52, (E)-5′-Methyl-3-styryl-5,6′-bis(3,4,5-trimethoxyphenyl)-2,3′-bipyridine] | reduced the tumor growth | no toxicity |  |  |  |  |  |  | 
COc1ccc(-c2ncc(-c3ncc(-c4cc(OC)c(OC)c(OC)c4)cc3/C=C/c3ccccc3)cc2C)cc1OC [compound 33, (E)-6′-(3,4-Dimethoxyphenyl)-5′-methyl-3-styryl-5-(3,4,5-trimethoxyphenyl)-2,3′-bipyridine] |  |  | synergistic effect | 40 | increase | about 1.5 | about 1 | about 0.5 | about 0.5
